Test results published in PMC9139979, “Features of ZED1227: The First-In-Class Tissue Transglutaminase Inhibitor Undergoing Clinical Evaluation for the Treatment of Celiac Disease” (Cells, 2022).
Entries after “also recorded” stand apart in the source; their conditions may differ.

Experiments:
[1] = Stability in PBS and artificial gastric and intestinal fluid (residual parent compound); assay type: physicochemical; settings: for Stability in PBS/saline (residual parent compound): initial 100 μM
Method: The logD value (distribution coefficient) of the compound was determined by means of the shake flask method, measuring the distribution of the solute in octanol and phosphate-buffered saline (PBS, pH 7.4). The concentration of ZED1227 in the immiscible solvents was determined by HPLC (vide supra). The stability in PBS (pH 7.4 or acidified to pH 5.0), in artificial gastric, and intestinal fluid was calculated as the percentage of residual parent compound after incubation for 24 h at 37 °C, using an initial concentration of 100 μM.

[2] = system: Huh7 cells; experiment: BrdU cell proliferation ELISA, Huh7; assay type: cell-based, human; settings: up to 1,000 μM, 24 h + 24 h
Method: Cytotoxicological analysis of ZED1227 was performed using Huh7 (human liver carcinoma, CLS Cell Lines Service GmbH, Eppelheim, Germany) and Caco-2 cells (human epithelial colorectal adenocarcinoma, Sigma Aldrich, Taufkirchen, Germany) with respect to the effect on proliferation and viability, according to the assay protocols provided by the manufacturers of the respective kits. The Cell Proliferation ELISA (BrdU, colorimetric) was purchased from Roche (Mannheim, Germany), whereas the Cell Proliferation and Cytotoxicity Assay EZ4U was purchased from Biomedica (Vienna, Austria). Briefly, Caco-2 cells (in MEM with 1% non-essential amino acid solution, both Sigma Aldrich (Taufkirchen, Germany), 10% fetal bovine serum, 2 mM L-glutamine, 100 U/mL penicillin–streptomycin, all from Gibco) or Huh7 cells (in DMEM low glucose, Sigma Aldrich (Taufkirchen, Germany), 10% fetal bovine serum, 1 mM sodium pyruvate, 100 U/mL penicillin–streptomycin, all from Gibco) were cultured in 96 well plates, using 2.5 μg/mL cycloheximide and 0.2 μg/mL camptothecin-treated cells as positive control. In the 5-bromo-2′-deoxyuridine (BrdU) assay (determination of cell proliferation), the cells were incubated with ZED1227 working solution (1% DMSO in culture medium) up to a concentration of 1,000 μM for 24 h, followed by addition of BrdU into the culture medium and further culturing for 24 h. […]

[3] = molecular target: T1, hTG2 (Homo sapiens, UniProt P21980); experiment: Fluorescent transamidation assay (DCC-assay), hTG2; assay type: biochemical; settings: recombinant human TG2, transamidation assay
T1 construct: purchased Zedira T022
T1 sequence (P21980 1-687): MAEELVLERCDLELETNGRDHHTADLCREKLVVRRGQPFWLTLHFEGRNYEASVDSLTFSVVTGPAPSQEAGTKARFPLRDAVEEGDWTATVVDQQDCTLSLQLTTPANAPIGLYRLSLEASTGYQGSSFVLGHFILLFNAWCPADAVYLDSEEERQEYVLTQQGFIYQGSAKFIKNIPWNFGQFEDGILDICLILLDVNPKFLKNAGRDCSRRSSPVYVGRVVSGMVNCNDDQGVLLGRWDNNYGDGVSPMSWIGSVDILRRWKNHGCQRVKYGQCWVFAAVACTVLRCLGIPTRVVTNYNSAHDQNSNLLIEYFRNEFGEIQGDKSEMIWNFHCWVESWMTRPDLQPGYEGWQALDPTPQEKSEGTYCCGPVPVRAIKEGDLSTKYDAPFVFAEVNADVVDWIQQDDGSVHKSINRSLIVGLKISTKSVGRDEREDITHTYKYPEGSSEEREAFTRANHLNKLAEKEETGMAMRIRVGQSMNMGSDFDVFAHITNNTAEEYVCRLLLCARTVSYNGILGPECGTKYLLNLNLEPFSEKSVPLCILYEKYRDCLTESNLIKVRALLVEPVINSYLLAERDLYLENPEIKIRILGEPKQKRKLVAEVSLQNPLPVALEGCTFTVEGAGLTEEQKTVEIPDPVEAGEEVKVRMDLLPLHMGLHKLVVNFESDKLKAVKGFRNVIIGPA
Method: Inhibition data were determined using the fluorescent transamidation assay (dansylcadaverine incorporation into glutamine-donor substrate N,N-dimethyl casein, DCC-assay). Briefly, to 15 μL of ZED1227 solution (dissolved and serial diluted in 2% (v/v) DMSO/assay buffer), 285 μL assay buffer [47.5 mM tris(hydroxymethyl)aminomethane, 9.5 mM CaCl2, 9.5 mM glutathione, 2.4% (v/v) glycerol, 190 mM NaCl, pH 8.0] containing dansylcadaverine (15.9 μM), N,N-dimethyl casein (3.8 μM) and the indicated recombinant transglutaminase enzyme [0.95 μg/mL hTG1 (T035), 0.81 μg/mL hTG2 (T022), 0.83 μg/mL hTG6 (T021), all from Zedira] were added, mixed and the kinetic measurement started immediately. In the case of hFXIII-A2 (0.83 μg/mL, T027, Zedira), the assay buffer contained human α-thrombin (5.2 × 10^−3 U/μL, T056, Zedira). The mixture was incubated for 20 min at room temperature to activate FXIII. In the case of hTG3a (0.81 μg/mL, T013, Zedira), full enzymatic activity was obtained by incubation for 80 min at 37 °C in assay buffer before addition of the inhibitor and start of the kinetics.
Fluorescence emission was continuously monitored for 30 min at λem = 500 nm (λex = 330 nm) and 37 °C using a CLARIOstar fluorescence plate reader (BMG Labtech, Ortenberg, Germany). All measurements were performed in triplicate. The respective IC50 (and IC90 for TG2) values were calculated by non-linear regression using the MARS software package (BMG Labtech). An irreversible-acting inhibitor, such as ZED1227, should, correctly, be characterized by the second-order rate constant k2nd, as detailed by Keillor [46]. However, such data are rather abstract and difficult to comprehend.
To facilitate comparability during lead structure optimization and to roughly estimate concentrations needed at the target site, the apparent IC50 values (calculated by four-parameter non-linear fit by MARS software) for irreversible inhibitors are more instructive and are therefore reported. Further, we report the potency of commercially available reference inhibitors Z006 (“Z-DON”), Z013 (ZED754), and T101 (all Zedira). To gain deeper mechanistic insight, we discuss the second-order rate constants (k2nd) published for Z006 and ZED754 in relation to their respective IC50 values.

[4] = system: adult patients with well-controlled celiac disease; set-up: method as in PMID 34192430; settings: cited from earlier work

SMILES: CCC(CC)CNC(=O)Cn1cccc(NC(=O)[C@H](CC/C=C/C(=O)OC)NC(=O)c2cncn2C)c1=O [ZED1227, (S,E)-Methyl 7-(1-(2-(2-ethylbutylamino)-2-oxoethyl)-2-oxo-1,2-dihydropyridin-3-ylamino)-6-(1-methyl-1H-imidazole-5-carboxamido)-7-oxohept-2-enoate]
- Recovery at low pH and in simulated gastric and intestinal fluid ([1]; after 24 h, summary statement): > 80%
- Stability in PBS/saline (residual parent compound) ([1]; pH 5.0, 24 h, 37 °C): 89%
- Stability in PBS/saline (residual parent compound) ([1]; pH 7.4, 24 h, 37 °C): 10%
- Stability in artificial gastric fluid (residual parent compound) ([1]; simulated gastric fluid pH 1.2, 24 h, 37 °C): 95%
- Stability in artificial intestinal fluid (residual parent compound) ([1]; simulated intestinal fluid pH 6.5, 24 h, 37 °C): 82%
- Cytotoxicity: Proliferation, Huh7 cells [2]: nor did it affect cell proliferation rates; also recorded: no effect up to 1,000 μM no effect up to 1,000 μM no effect up to 1,000 μM no effect up to 1,000 μM
- IC90 [3]: 300 nM
- IC50 ([3]; apparent IC50 of irreversible inhibitor, read-out: App. IC50 hTG2): 53 nM
- Effect on gluten-induced duodenal mucosal injury, phase 2a ([4]; 6-week treatment, 10, 50, 100 mg oral, 3 g daily gluten challenge): protect celiac patients from gluten-induced mucosal injury; also recorded: all dose levels attenuated gluten-induced duodenal mucosal injury; also recorded: protected celiac patients from mucosal damage
- Tolerability in gluten challenge study ([4]; celiac patients, gluten challenge): well-tolerated
